According to patent US11879140B2, “P21 mRNA targeting DNAzymes” (1E Therapeutics Ltd., priority 2020, dated 2024):

Assays:
[1] = test system: mouse p21 mRNA; test: In vitro cleavage of mouse p21 mRNA; type: biochemical; details: in vitro cleavage of mouse p21 mRNA (SEQ ID NO: 3)
[2] = test system: Bleomycin-induced pulmonary fibrosis model mice; test: Bleomycin-induced idiopathic pulmonary fibrosis (IPF) mouse model; type: in vivo
Experimental: Total RNA from lung samples (post-caval lobe) was extracted using RNAiso (Takara Bio. Japan) according to manufacturer protocol. Reverse transcription was performed using MMLV-RT (Invitrogen). Real-time PCR was performed using TB Green™ Premix Ex Taq™ II (Takara Bio). To calculate the relative mRNA expression level, the expression of each gene (Collagen Type 1) were be normalized to that of reference gene 36B4 (gene symbol: Rplp0).
C57/B6 mice were induced to develop pulmonary fibrosis by a single intra-tracheal administration of Bleomycin hydrochloride (Nippon Kayaku. Japan) in saline at a dose of 3.0 mg/kg, in a volume of 50 μL per animal using Microsprayer® (Penn-Century. USA). Mice that served as the Sham control group were intratracheally administered with saline, instead of the Bleomycin. Mice were initially randomized based on body weight before Bleomycin instillation. At second randomization, Bleomycin-induced pulmonary fibrosis model mice were divided based on the body weight changes on the day before the start of treatment at Day 7. DNAzyme treatment was performed intranasally with 200 μg of DNAzyme resuspended in 50 μL PBS per treatment. PBS intra-nasal treatment served as control. Mice were treated daily following Bleomycin instillation with either DNAzyme or control from day 1 to 20 (prophylactic regimen) or from day 7 to 20 (therapeutic regimen). Body weight, viability, clinical signs and behavior were monitored daily. Mice were sacrificed three weeks following Bleomycin instillation.
Right lung tissues prefixed in 10% neutral buffered formalin were embedded in paraffin and sectioned at 4 μm.
For immunohistochemistry (IHC) staining, sections were subjected to heat induced epitope retrieval (HIER) Following HIER, the sections were incubated rabbit monoclonal anti-p21 antibody [EPR18021] (Abcam) 1:2000 or rabbit monoclonal anti-α-SMA antibody [EPR5368] (Abcam) 1:2000. Section bound primary antibody was detected employing horseradish peroxidase labeled anti-rabbit IgG polymeric reagent.
For Masson's Trichrome staining, the sections were deparaffinized and rehydrated, followed by re-fixation with Bouin's solution for 15 minutes. The sections were stained in Weigert's iron Hematoxylin working solution (Sigma-Aldrich), Biebrich scarlet-Acid fuchsin solution (Sigma-Aldrich), Phosphotungstic/phosphomolybdic Acid solution, Aniline blue solution and 1% Acetic Acid solution (Sigma-Aldrich). For quantitative analysis of lung fibrosis area, bright field images of Masson's Trichrome-stained sections were randomly captured using a digital camera (DFC295; Leica, Germany) at 100-fold magnification, and the subpleural regions in 20 fields/mouse were evaluated according to the criteria for grading lung fibrosis [Ashcroft. T. et al., Simple method of estimating severity of pulmonary fibrosis on a numerical scale. J Clin. Pathol. (1988) 41: 467-470]. All sections were blindly analyzed by an experimenter.
Digital images were analyzed by a custom MATLAB algorithm, using Image Processing Toolbox. First, a binary image was calculated, in order to distinguish background pixels from the lobe pixels. Next, a morphological close operation on the image was preformed, fill of the holes, and extraction of the largest connected component, in order to detect all lobe area, including alveoli. The density of the lobe was defined by the ratio between the stained pixels to the total pixels in the lobe area. For Masson's Trichrome staining, blue pixels were detected and separated from purple staining by specifying RGB (red, green, and blue) constraints. The Collagen percentage in each image was defined by the ratio between the blue pixels to the total pixels in the lobe area.
For p21 staining, an image segmentation algorithm was performed to identify all nuclei in image. Next, cells positive to p21 were detected by RGB and size constraints. […]

[3] = test system: senescent human IMR-90 fibroblast cells; type: cell-based; details: increasing concentrations (FIGS. 6A-C, 12A-C)
In short: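 Senescence was induced by etoposide at […] for 48 h, with the phenotype present 7 days later, or by H-RasG12 or long-term passaging. Cells grown at 5% oxygen were transfected with DNAzymes by Lipofectamine 2000, and survival was scored 3-6 days later by PrestoBlue relative to Lipofectamine-only control.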

[4] = test system: human p21 mRNA; test: In vitro cleavage assay of human p21 mRNA; type: biochemical; details: in vitro cleavage of p21 mRNA (SEQ ID NO: 1); RNA substrate 500 nM, 37° C. 60 min, agarose gel
In short: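 RNA substrates were T7 in vitro transcripts from PCR-amplified cDNA (source RNA: senescent IMR-90 cells), gel-purified. Substrate at 500 nM final was incubated with DNAzyme (10 μM stock) in reaction buffer (10× stock: 50 mM Tris-HCl pH 7.4, 100 mM NaCl, 10 mM MgCl2) for 60 min at 37 °C. Cleavage products were resolved on 1.5% agarose TBE gels and quantified by densitometry.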

[5] = test system: senescent lung fibroblasts (WI-38); test: Viability assay on WI-38 cells; type: cell-based, human; details: FIG. 6D
Experimental: (§1) Human IMR-90, BJ, WI-38 fibroblasts and REC epithelial cells were obtained from ATCC and grown at 5% oxygen. IMR-90 and REC cells were maintained in DMEM medium comprising 100 units per ml of penicillin, […] of streptomycin and 10% fetal bovine serum. BJ and WI-38 cells were maintained in EMEM medium comprising 100 units per ml of penicillin, […] of streptomycin, 10% fetal bovine serum, 1% Pyruvate, 1% L-Glutamine, mLFs were isolated according to standard procedures [Seluanov, A., et al. J Vis Exp (2010) (44):2033] and grown at 5% oxygen. Cells were maintained in EMEM medium comprising 100 units per ml of penicillin, […] of streptomycin and 15% fetal bovine serum.
(§2) DNA damage induced senescence (DIS) was induced by etoposide treatment (E1383, Sigma) at a concentration of […] for IMR-90, BJ, and WI-38, 16 μM for mLF and 12.5 μM for REC for a duration of 48 hours. Cells acquired the senescence phenotype 7 days post treatment (determined by SA-beta-gal staining).
(§3) Primary target cells (IMR-90, BJ, […]) were plated in 24-well plates at 100,000 cells per well. Cells were transfected with different concentrations of DNAzymes (as depicted in Table 2, below) using Lipofectamine™ 2000 (Invitrogen) according to manufacturer instructions. […]

[6] = test system: senescent epithelial kidney cells (REC); test: Viability assay on REC cells; type: cell-based, human; details: FIG. 6D
Experimental: as §1, §2, §3

| Substance | Validated cleavage [1] | oxygen saturation in the blood ([2]; FIG. 14A) | number of p21 expressing cells in the lung tissue ([2]; both treatment regimens, IHC day 21 (FIG. 14B)) | Hydroxyproline levels ([2]; left lung, day 21, therapeutic and preventative (FIG. 14E)) | Ashcroft fibrosis score ([2]; lung sections day 21, compared to bleomycin treated group, p=0.0206 (FIG. 10B)) | survival rate ([2]; over 21 days, both therapeutic and preventative regimens, vehicle group 75% (FIG. 10D)) [%] | expression levels of senescence related genes and SASP factors ([2]; post caval lobe, day 21 (FIG. 14C)) | lung tissue density ([2]; therapeutic and preventive groups (FIG. 14F)) | collagen levels (Masson's Trichrome) ([2]; therapeutic and preventive regimens (FIG. 14D)) | selectivity of killing, senescent versus growing IMR-90 cells [3] | Validated cleavage [4] | elimination of senescent but not growing WI-38 cells [5] | elimination of senescent but not growing REC cells [6] |
| --- | --- | --- | --- | --- | --- | --- | --- | --- | --- | --- | --- | --- | --- |
| Dz_639: targets mouse p21; SEQ ID NO: 85: GGCCGAAGAggctagctacaacgaGGGGAAGAG; used in IPF model (GGCCGAAGAGGCTAGCTACAACGAGGGGAAGAG; chemistry not given here) | effective | significantly elevated | reduction | reduced | lower | 100 | significantly reduced | reduced | significantly reduced |  |  |  |  |
| DNAzyme 1114: SEQ ID NO: 40: AGGAGAACAggctagctacaacgaGGGAUGAGG (DNA AGGAGAACAGGCTAGCTACAACGAGGGAUGAGG; DNA, backbone, methylation of C and T or U not given here) |  |  |  |  |  |  |  |  |  | maintained over a large range of concentrations | validated for mediating cleavage of p21 mRNA | effectively eliminated | effectively eliminated |
